Experimental data as given in patent US4748155A, “Pharmacologically active tripeptides and process for their synthesis” (Eniricerche S.p.A., priority 1985, dated 1988).

Test system: acetic acid-induced writhings in mice
Details: mouse, in vivo, ip
Description: The analgesic activity has been tested by means of the writhing test. As the painful agent, an aqueous solution of acetic acid at 3% was used, injected by intraperitoneal way (0.1 ml/10 g), and the number was recorded of animal' writhings during the observation time of 20 minutes.
Twenty female mice of Albino Swiss strain, weighing 25-28 g, were treated with the compound under test, dissolved in physiologic solution:dimethylsulphoxide (1:1), at the dosage of 0.1 ml/kg/i.p. Other 20 mice, of same strain, sex and weight, were treated with the solvent only. After 40 minutes, the acetic acid was administered to both groups, and the increase of writhings was recorded.

## CC(C)C[C@@H](NC(=O)C(Cc1c[nH]c2ccccc12)C(=O)O)NC(=O)[C@@H]1CCC(=O)N1 (stereo partly drawn) [GLP-g-Leu-m-TRP-OH, N-(pyroglutamyl)-N'-[(R,S)-alpha-carboxy-beta-3-indolyl-propanoyl]-(S)-1,1-diamino-isopentane]
  inhibition of the number of contorsions (writhings): 25%
